# In patent publication US20240041878A1, “APELIN RECEPTOR MODULATORS FOR TREATMENT OF A DISORDER OR DISEASE ASSOCIATED WITH BBB PERMEABILITY” (BioAge Labs, Inc., priority 2022, published 2024):
# Columns and labels:
# [1] = system: 26 month-old mice; assay: Mouse Cytokine Array Panel on plasma of aged mice; assay type: in vivo; conditions: 50 mg/kg BID P.O. one week, 10 of 40 cytokines detectable
# Procedure: The mice were handled in accordance with principles and guidelines established by the “Guide for the Care and Use of Laboratory Animals” and overseen by the BioAge Lab's institutional animal care and use committee (IACUC). Mice were housed conventionally in a constant temperature (20-22° C.) and humidity (40%-60%) animal room with a 12/12 h light/dark cycle and free access to food and water. 26 month-old mice were randomized based on the body weight and body condition scores to two groups (vehicle or BGE-105, n=8). 4 month-old female mice were used as an additional control group (vehicle, n=4). Mice were administered P.O. vehicle or BGE-105 at 50 mg/kg (BID) for one week. After completion of dosing, blood samples were collected via retro-orbital bleeding under isoflurane anesthesia into K2-EDTA tubes to prevent coagulation. Mice were euthanized via transcardiac perfusion under isoflurane anesthesia. Whole blood was centrifuged to isolate plasma, which was stored at −80° C. until further experimentation.
# For qualitative analysis of 40 different cytokines, plasma samples were assessed with the Mouse Cytokine Array Panel (R&D Systems) according to manufacturer's instructions. […] The optical of each dot on the array serves as a relative measure of cytokine abundance (e.g., a more intensely-stained dot denotes more cytokine present in the sample) and was analyzed with ImageJ software (NIH).
# [2] = system: apelin receptor (APJ) signaling in astrocytes; assay: Western blot of APJ, p-AKT and t-AKT in astrocytes; assay type: cell-based, mouse
# Procedure: To stimulate astrocytes into a reactive state found in aging and neurodegenerative diseases per previous publications (Liddelow et al., 2017; Barbar et al., 2020), a combination of the cytokines TNF-α and IL-1α, and complement factor C1q, were added at 30 ng/mL, 3 ng/mL, and 400 ng/mL, respectively, into astrocyte culture media to make ‘reactive astrocyte cocktail’ (RAC) media. Astrocytes were cultured in RAC media for 24 hours, with or without various concentrations of BGE-105 (10 nM, 50 nM, 250 nM final concentration), (Pyr^1)-Apelin-13 (50 nM; Bachem, Cat. #4029110), BAY-11-7082 (50 μM; Abcam, Cat. #ab141228) or equal volume of vehicle (0.01% DMSO in PBS) (hereafter referred to as ‘RAC treatment’). Cells in Groups 3-6 were treated with RAC for 24 hours, with or without the test compounds (n=4 per group). • Group 1: Control [CON] • Group 2: CON+BGE-105 (50 nM) [CON+105] • Group 3: Reactive control treated with RAC only [RAC] • Group 4: RAC+BGE-105 (50 nM) [RAC+105] • Group 5: RAC+Pyrm-Apelin-13 (50 nM) • Group 6: RAC+BAY-11-7082 (NF-κB inhibitor; 50 μM) [RAC+BAY]
# Mice were handled in accordance with principles and guidelines established by the “Guide for the Care and Use of Laboratory Animals” and overseen by the BioAge Lab's Institutional Animal Care and Use Committee (IACUC). Mouse primary astrocytes were isolated and cultured in 0.01% poly-L-lysine coated 6- or 12-well tissue culture plates at 200,000 or 120,000 cells/well, respectively, with astrocyte growth media as previously described in (Lundquist et al. 2022. Knockdown of Astrocytic Monocarboxylate Transporter 4 in the Motor Cortex Leads to Loss of Dendritic Spines and a Deficit in Motor Learning. Mol Neurobiol 59, 1002-1017). […]
# For analysis of astrocyte protein expression, cells were washed after RAC treatment with PBS and lysed with Neuronal Protein Extraction Reagent (Thermo Scientific, Cat. #87792), centrifuged to pellet debris, and supernatant was transferred to a new tube. Total protein concentration was measured by BCA protein assay (Thermo Scientific, Cat. #PI23227).
# [3] = system: Embryonic rat neurons; assay: Neuronal survival after RAC-conditioned media (ApoTox-Glo Triplex Assay); assay type: cell-based
# Text: Mice were handled in accordance with principles and guidelines established by the “Guide for the Care and Use of Laboratory Animals” and overseen by the BioAge Lab's Institutional Animal Care and Use Committee (IACUC). Mouse primary astrocytes were isolated and cultured in 0.01% poly-L-lysine coated 6- or 12-well tissue culture plates at 200,000 or 120,000 cells/well, respectively, with astrocyte growth media as previously described in (Lundquist et al. 2022. Knockdown of Astrocytic Monocarboxylate Transporter 4 in the Motor Cortex Leads to Loss of Dendritic Spines and a Deficit in Motor Learning. Mol Neurobiol 59, 1002-1017). Embryonic rat neurons were purchased from ScienCell (Cat. #R1550) and cultured in neuronal media (ScienCell, Cat. #1521) per manufacturer's protocol, with slight modifications. Briefly, neurons were thawed and resuspended in neuronal media with the addition of 1 μg laminin (Sigma, Cat. #L2020) per 1 mL culture media, then plated in 0.01% poly-L-lysine coated 96-well tissue culture plates at 60,000 cells/well. […]
# For analysis of neuronal survival, culture media was collected after RAC treatment and added directly to rat neurons (previously described above) for 24 hours. After exposure, neuronal viability was assessed with the ApoTox-Glo Triplex Assay according to manufacturer's protocol (Promega, Cat. #G6320). […]
# [4] = system: aged mice with TBI; assay: Traumatic brain injury (TBI) model in aged mice, controlled cortical impact; assay type: in vivo, mouse; conditions: given orally before and/or after controlled cortical impact
# Text: This study assessed the effects of BGE-105 on mitigating the effects of CNS damage and inflammation, and accelerating functional recovery, in a mouse model of TBI.
# BGE-105 is given orally to aged mice at various potential doses for a period of time before and/or after controlled cortical impact (model of TBI in mice); during the experimental period, mice undergo various behavioral assessments to understand whether BGE-105 treatment affected motor and cognitive functions known to be impaired by TBI. After, the brains of mice are analyzed for neuroinflammatory markers by a variety of histological and biochemical methods
# [5] = RAC+BGE-105 [50 nM] versus CON and RAC
smiles,measurement,setting,value
"COc1cccc(OC)c1-n1c(NS(=O)(=O)[C@@H](C)[C@H](C)c2ncc(C)cn2)nnc1-c1cncc(C)c1 [BGE-105, (2S,3R)—N-(4-(2,6-dimethoxyphenyl)-5-(5-methyl-3-pyridinyl)-4H-1,2,4-triazol-3-yl)-3-(5-methyl-2-pyrimidinyl)-2-butanesulfonamide]",average decrease of optical density of the detectable cytokines in plasma cytokine array,[1],28%
same,"increase of p-AKT expression level, as compared to t-AKT, normalized with β-actin",[2]; RAC+BGE-105 [50 nM],about 2 folds
same,APJ protein expression normalized with β-actin,[2]; [5],No significant fold change
same,t-AKT expression,[2]; [5],remained comparable
same,"cell viability relative to RAC, exogenous BGE-105","[3]; RAC+ex105 [50 nM], added directly to neurons in addition to the toxic RAC media",did not provide statistical change
same,increase of cellular viability as compared to RAC,"[3]; media of astrocytes treated with RAC+BGE105 [250 nM], added to neurons 24 hours",about 30%
same,neuroinflammatory markers and neuro-inflammation,[4],decrease of neuroinflammatory markers
